Source: PMC10002375, “Synthesis of 3-(2-Alkylthio-4-chloro-5-methylbenzenesulfonyl)-2-(1-phenyl-3-arylprop-2-enylideneamino)guanidine Derivatives with Pro-Apoptotic Activity against Cancer Cells” (International Journal of Molecular Sciences, 2023)

Experiments:
MCF-7 (breast cancer) = assay: MTT cell viability assay, MCF-7; assay type: cell-based, human; conditions: for IC50: MTT, 72 h; for Selectivity Index MCF-7/HaCaT: MCF-7 versus HaCaT, from IC50 values
Source text: (§1) The cytotoxic activity of the compounds 8–33 has been evaluated in MTT assays against three human cancer cell lines MCF-7 (breast cancer), HeLa (cervical cancer), and HCT-116 (colon cancer) and it was expressed as IC50 values in μM (Table 1).
(§2) All chemicals, if not stated otherwise, were obtained from Sigma-Aldrich (St. Louis, MO, USA). The MCF-7 cell line was purchased from Cell Lines Services (Eppelheim, Germany), the HeLa and HCT-116 cell lines were obtained from the Department of Microbiology, Tumor and Cell Biology, Karolinska Institute (Stockholm, Sweden). Cells were cultured in Dulbecco’s modified Eagle’s medium (DMEM) supplemented with 10% fetal bovine serum, 2 mM glutamine, 100 units/mL penicillin, and 100 μg/mL streptomycin. Cultures were maintained in a humidified atmosphere with 5% CO2 at 37 °C in an incubator (HeraCell, Heraeus, Langenselbold, Germany).
(§3) Cell viability was determined using the MTT (3-(4,5-dimethylthiazol-2-yl)-2,5-diphenyl-tetrazoliumbromide) assay. Stock solutions of the studied compounds were prepared in 100% DMSO. […] Cells were seeded in 96-well plates at a density of 5 × 10^3 cells/well and treated for 72 h with the examined compounds in the concentration range 1–100 μM (1, 10, 25, 50, and 100 μM). Following treatment, MTT (0.5 mg/mL) was added to the medium and cells were further incubated for 2 h at 37 °C. Cells were lysed with DMSO and the absorbance of the formazan solution was measured at 550 nm with a plate reader (1420 multilabel counter, Victor, Jügesheim, Germany). […] The experiment was performed in triplicate. Values are expressed as the mean ± SD of at least three independent experiments.

HaCaT cells = assay: MTT assay with non-cancerous HaCaT cell line; assay type: cell-based; conditions: 72 h
Description: The important feature of new cytotoxic agents is their selective activity against cancer cells with a weak impact on the physiology of healthy cells. Determination of the selectivity of compounds 14–19 and 24–29 was done by MTT assay with the non-cancerous HaCaT cell line (Table 2). […] A similar effect was observed also for compound 26. […] Due to the excellent selectivity of compound 30 towards HCT-116 cells and at the same time high cytotoxicity towards this cell line (IC50 = 8 μM); derivative 30 may be a good hit compound for the search for chemotherapeutic agents for the treatment of colon cancer.
as §3

HeLa (cervical cancer) = assay: MTT cell viability assay, HeLa; assay type: cell-based, human; conditions: for IC50: Homo sapiens, HeLa, MTT, 72 h; for Selectivity Index HeLa/HaCaT: HeLa versus HaCaT, from IC50 values
Description: as §2, §3

HCT-116 (colon cancer) = assay: MTT cell viability assay, HCT-116; assay type: cell-based, human; conditions: for IC50: Homo sapiens, HCT-116, MTT, 72 h; for Selectivity Index HCT-116/HaCaT: HCT-116 versus HaCaT, from IC50 values
Description: as §2, §3

[1] = test system: MCF-7, HeLa and HCT-116 cells; assay: MTT assay, mean over three tested cancer cell lines; assay type: cell-based, human
Description: as §1
Although the highest activity of the compounds with hydroxyl groups as the R^2 residue was against colon cancer cells, the inhibition of the growth of breast cancer cells was also remarkable.
as §3

Row | SMILES | IC50 (HeLa (cervical cancer)) [µM] | IC50 (HCT-116 (colon cancer)) [µM] | IC50 (MCF-7 (breast cancer); Homo sapiens, MCF7) [µM] | melting point [°C] | IC50 ([1]; Homo sapiens, mean of MCF-7, HeLa, HCT-116, MTT, 72 h, read-out: mean IC50 against three tested cell lines) [µM] | IC50 (MCF-7 (breast cancer)) [µM] | IC50 (HaCaT cells) [µM] | Selectivity Index HeLa/HaCaT (HeLa (cervical cancer)) | Selectivity Index HCT-116/HaCaT (HCT-116 (colon cancer)) | Selectivity Index MCF-7/HaCaT (MCF-7 (breast cancer)) | IC50 (HaCaT cells; Homo sapiens, HaCaT) [µM] | selectivity ratio, mean IC50 against cancer cells versus IC50 for HaCaT ([1]; HaCaT versus mean of three cancer cell lines)
1 | N.N.[Cl][Pt][Cl] [Cisplatin, reference compound] |  |  |  |  |  | 3 ± 0.1 | 7.7 ± 0.2 |  |  |  |  | 
2 | Cc1cc(S(=O)(=O)NC(N)=NN=C(C=Cc2ccccc2)c2ccccc2)c(SCc2ccccc2)cc1Cl [Compound 8] | 120 ± 8 | 167 ± 7 | 130 ± 8 |  |  |  |  |  |  |  |  | 
3 | Cc1cc(S(=O)(=O)NC(N)=NN=C(C=Cc2ccccc2O)c2ccccc2)c(SCc2ccccc2)cc1Cl [Compound 9] | 17 ± 1 | 11 ± 0.5 | 18 ± 1 |  |  |  |  | 2.1 | 3.2 | 1.9 | 35 ± 1 | 
4 | COc1ccc(C=CC(=NN=C(N)NS(=O)(=O)c2cc(C)c(Cl)cc2SCc2ccccc2)c2ccccc2)cc1 [Compound 11] |  | 300 ± 21 | 330 ± 17 |  |  |  |  |  |  |  |  | 
5 | Cc1cc(S(=O)(=O)NC(N)=NN=C(C=Cc2ccc(Cl)cc2)c2ccccc2)c(SCc2ccccc2)cc1Cl [Compound 12] | 190 ± 10 | 113 ± 6 | 210 ± 13 |  |  |  |  |  |  |  |  | 
6 | Cc1cc(S(=O)(=O)NC(N)=NN=C(C=Cc2ccc([N+](=O)[O-])cc2)c2ccccc2)c(SCc2ccccc2)cc1Cl [Compound 13] | 340 ± 31 | 320 ± 10 | 370 ± 20 |  |  |  |  |  |  |  |  | 
7 | Cc1cc(S(=O)(=O)NC(N)=NN=C(C=Cc2ccccc2O)c2ccccc2)c(SCc2ccccc2C)cc1Cl [Compound 14] | 18 ± 1 | 9 ± 0.1 | 13 ± 0.6 |  |  |  |  | 1.7 | 3.4 | 2.4 | 31 ± 2 | 
8 | Cc1cccc(CSc2cc(Cl)c(C)cc2S(=O)(=O)NC(N)=NN=C(C=Cc2ccccc2O)c2ccccc2)c1 [Compound 16] | 36 ± 2 | 17 ± 0.1 | 20 ± 0.5 |  |  |  |  | ns | 2.4 | 2.0 | 41 ± 2 | 
9 | Cc1ccc(CSc2cc(Cl)c(C)cc2S(=O)(=O)NC(=N)N/N=C(/C=C/c2ccccc2)c2ccccc2)cc1 [Compound 18] | 200 ± 10 | 160 ± 5 | 260 ± 15 |  |  |  |  |  |  |  |  | 
10 | Cc1cc(S(=O)(=O)NC(N)=NN=C(C=Cc2ccccc2O)c2ccccc2)c(SCc2cccc(Cl)c2)cc1Cl [Compound 26] | 19 ± 0.5 | 10 ± 0.4 | 13 ± 0.6 |  |  |  |  | 2.0 | 3.8 | 2.9 | 38 ± 2 | 
11 | Cc1cc(S(=O)(=O)NC(N)=NN=C(C=Cc2ccccc2)c2ccccc2)c(SCc2ccc(Cl)cc2)cc1Cl [Compound 28] | 20 ± 1 | 220 ± 11 | 230 ± 12 |  |  |  |  |  |  |  | 99 ± 3 | 
12 | Cc1cc(S(=O)(=O)NC(N)=NN=C(C=Cc2ccccc2O)c2ccccc2)c(SCc2ccc(Cl)cc2)cc1Cl [Compound 29] | 41 ± 2 | 18 ± 0.4 | 19 ± 1 |  |  |  |  | ns | 2.5 | 2.4 | 45 ± 3 | 

Further lines, with some results ahead:

Row | IC50 (HeLa (cervical cancer)) [µM] | IC50 (HCT-116 (colon cancer)) [µM] | IC50 (MCF-7 (breast cancer); Homo sapiens, MCF7) [µM] | melting point [°C] | IC50 ([1]; Homo sapiens, mean of MCF-7, HeLa, HCT-116, MTT, 72 h, read-out: mean IC50 against three tested cell lines) [µM] | SMILES | IC50 (MCF-7 (breast cancer)) [µM] | IC50 (HaCaT cells) [µM] | Selectivity Index HeLa/HaCaT (HeLa (cervical cancer)) | Selectivity Index HCT-116/HaCaT (HCT-116 (colon cancer)) | Selectivity Index MCF-7/HaCaT (MCF-7 (breast cancer)) | IC50 (HaCaT cells; Homo sapiens, HaCaT) [µM] | selectivity ratio, mean IC50 against cancer cells versus IC50 for HaCaT ([1]; HaCaT versus mean of three cancer cell lines)
13 | 15 ± 1 | 9 ± 0.1 | 15 ± 1 |  |  | Cc1cc(S(=O)(=O)NC(N)=NN=C(C=Cc2ccc(O)cc2)c2ccccc2)c(SCc2ccccc2)cc1Cl [Compound 10] |  |  | 2.1 | 3.4 | 2.1 | 31 ± 1 | 
14 | 18 ± 0.5 | 10 ± 0.6 | 13 ± 0.4 | 220 to 225 |  | Cc1cc(S(=O)(=O)NC(N)=NN=C(C=Cc2ccc(O)cc2)c2ccccc2)c(SCc2ccccc2C)cc1Cl [Compound 15] |  |  | 1.8 | 3.3 | 2.5 | 33 ± 2 | 
15 | 21 ± 1 | 12 ± 0.6 | 17 ± 1 |  |  | Cc1cccc(CSc2cc(Cl)c(C)cc2S(=O)(=O)NC(N)=NN=C(C=Cc2ccc(O)cc2)c2ccccc2)c1 [Compound 17] |  |  | 1.7 | 2.9 | 2.1 | 35 ± 2 | 
16 | 23 ± 1 | 11 ± 0.2 | 14 ± 1 | 120 to 125 |  | Cc1ccc(CSc2cc(Cl)c(C)cc2S(=O)(=O)NC(N)=NN=C(C=Cc2ccccc2O)c2ccccc2)cc1 [Compound 19] |  |  | 1.6 | 3.3 | 1.9 | 36 ± 2 | 
17 | 15 ± 1 | 8.5 ± 0.2 | 15 ± 1 |  | 12.8 | Cc1ccc(CSc2cc(Cl)c(C)cc2S(=O)(=O)NC(N)=NN=C(C=Cc2ccc(O)cc2)c2ccccc2)cc1 [Compound 20, 3-{4-Chloro-2-[(4-methylphenyl)methylthio]-5-methylbenzenesulfonyl}-2-[3-(4-hydroxyphenyl)-1-phenylprop-2-enylideneamino]guanidine] |  |  | 2.1 | 3.6 | 2.1 | 31 ± 1 | 2.42
18 | 250 ± 12 | 235 ± 5 | 150 ± 10 |  |  | COc1ccc(C=CC(=NN=C(N)NS(=O)(=O)c2cc(C)c(Cl)cc2SCc2ccc(C)cc2)c2ccccc2)cc1 [Compound 21] |  |  |  |  |  |  | 
19 | 705 ± 35 | 183 ± 13 | 193 ± 10 | 172 to 177 |  | Cc1ccc(CSc2cc(Cl)c(C)cc2S(=O)(=O)NC(N)=NN=C(C=Cc2ccc(Cl)cc2)c2ccccc2)cc1 [Compound 22] |  |  |  |  |  |  | 
20 | 170 ± 10 |  | 280 ± 17 |  |  | Cc1ccc(CSc2cc(Cl)c(C)cc2S(=O)(=O)NC(N)=NN=C(C=Cc2ccc([N+](=O)[O-])cc2)c2ccccc2)cc1 [Compound 23] |  |  |  |  |  |  | 
21 | 18 ± 0.5 | 15 ± 0.6 | 19 ± 1 |  |  | Cc1cc(S(=O)(=O)NC(N)=NN=C(C=Cc2ccc(O)cc2)c2ccccc2)c(SCc2ccccc2Cl)cc1Cl [Compound 25] |  |  | 2.3 | 2.7 | 2.2 | 41 ± 2 | 
22 | 20 ± 0.5 | 12 ± 0.1 | 16 ± 1 |  |  | Cc1cc(S(=O)(=O)NC(N)=NN=C(C=Cc2ccc(O)cc2)c2ccccc2)c(SCc2cccc(Cl)c2)cc1Cl [Compound 27] |  |  | 1.8 | 3.1 | 2.3 | 37 ± 2 | 
23 | 37 ± 1 | 8 ± 0.2 | 18 ± 1 |  |  | Cc1cc(S(=O)(=O)NC(N)=NN=C(C=Cc2ccc(O)cc2)c2ccccc2)c(SCc2ccc(Cl)cc2)cc1Cl [Compound 30, 3-{4-chloro-2-[(4-chlorophenyl)methylthio]-5-methylbenzenesulfonyl}-2-[3-(4-hydroxyphenyl)-1-phenylprop-2-enylideneamino]guanidine] |  |  | 2.3 | 10.6 | 4.7 | 85 ± 2 | 
24 | 110 ± 3 | 450 ± 27 | 220 ± 12 |  |  | Cc1cc(S(=O)(=O)NC(N)=NN=C(C=Cc2ccc([N+](=O)[O-])cc2)c2ccccc2)c(SCc2ccc(Cl)cc2)cc1Cl [Compound 33] |  |  |  |  |  |  | 
